Experimental data reported in patent US12545685B2 (Daiichi Sankyo Company, Limited, priority 2011, dated 2026).

Molecular target: T1, Mdm2/p53 binding (GST-Mdm2 / His-p53) (Homo sapiens, UniProt Q00987, L33E)
T1 construct: Mdm2 partial protein having Mdm2 amino acids at positions 25 to 108
Assay: Mdm2/p53 binding assay (HTRF, His-p53 and GST-Mdm2)
Settings: His-p53 (aa 1-132) and GST-Mdm2 (aa 25-108, L33E) 6.25 nM each; 25°C, 1 hour; values given as ranges
Method in brief: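 His-p53 (aa 1–132) and GST-Mdm2 (aa 25–108, L33E) were prepared at 6.25 nM each in the protein dilution (20 mM HEPES pH 7.4, 150 mM NaCl, 0.1% BSA). Compound in 10% DMSO buffer and XL665 anti-His/Eu anti-GST antibodies (KF buffer) were added, with 1 h at 25 °C. The 665/620 nm TR-FRET ratio gave T/C and a sigmoid-fitted IC50.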

T1 sequence (Q00987 25-108 L33E): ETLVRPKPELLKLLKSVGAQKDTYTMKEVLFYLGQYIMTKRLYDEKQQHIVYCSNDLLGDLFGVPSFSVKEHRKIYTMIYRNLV

IC50 [nM]	Structure (SMILES)
1 to 50	CC1(C)CCC2(CC1)N[C@@H](C(=O)N[C@@H]1CC[C@@H](C(=O)N3CCC3)OC1)[C@H](c1ccnc(Cl)c1F)[C@]21C(=O)Nc2cc(Cl)ccc21 [Example 106, (3′R, 4+S,5′R)—N-[(3R,6S)-6-(azetidin-1-ylcarbonyl)tetrahydro-2H-pyran-3-yl]-6″-chloro-4′-(2-chloro-3-fluoropyridin-4-yl)-4,4-dimethyl-2″-oxo-1″,2″-dihydrodispiro[cyclohexane-1,2′-pyrrolidine-3′,3″-indole]-5H-carboxamide]
1 to 50	CCNC(=O)[C@H]1C[C@H](NC(=O)[C@@H]2NC3(CCC(C)(C)CC3)[C@@]3(C(=O)Nc4cc(Cl)ccc43)[C@H]2c2ccnc(Cl)c2F)C1 [Example 118, (3′R,4′S,5′R)-6″-chloro-4′-(2-chloro-3-fluoropyridin-4-yl)-N-[trans-3-(ethylcarbamoyl)cyclobutyl]-4,4-dimethyl-2″-oxo-1″,2″-dihydrodispiro[cyclohexane-1,2′-pyrrolidine-3′,3″-indole]-5′-carboxamide]
1 to 50	CC1(C)CCC2(CC1)N[C@@H](C(=O)N[C@H]1C[C@H](CO)C1)[C@H](c1ccnc(Cl)c1F)[C@]21C(=O)Nc2cc(Cl)ccc21 [Example 119, (3′R,4′S,5′R)-6″-chloro-4′-(2-chloro-3-fluoropyridin-4-yl)-N-[trans-3-(hydroxymethyl)cyclobutyl]-4,4-dimethyl-2″-oxo-1″,2″-dihydrodispiro[cyclohexane-1,2′-pyrrolidine-3′,3″-indole]-5′-carboxamide]
1 to 50	CC1(C)CCC2(CC1)N[C@@H](C(=O)N[C@H]1C[C@H](C(=O)NC3CCOCC3)C1)[C@H](c1ccnc(Cl)c1F)[C@]21C(=O)Nc2cc(Cl)ccc21 [Example 120, (3′R, 4′S,5′R)-6″-chloro-4′-(2-chloro-3-fluoropyridin-4-yl)-4,4-dimethyl-2″-oxo-N-[trans-3-(tetrahydro-2H-pyran-4-ylcarbamoyl)cyclobutyl]-1″,2″-dihydrodispiro[cyclohexane-1,2′-pyrrolidine-3′,3″-indole]-5′-carboxamide]
1 to 50	NC(=O)[C@@H]1CC[C@@H](NC(=O)[C@@H]2NC3(CC(CF)(CF)C3)[C@@]3(C(=O)Nc4cc(Cl)ccc43)[C@H]2c2cccc(Cl)c2F)CO1 [Example 122, (3′R, 4′S,5′R)—N-[(3R, 6S)-6-carbamoyltetrahydro-2H-pyran-3-yl]-6″-chloro-4′-(3-chloro-2-fluorophenyl)-3,3-bis(fluoromethyl)-2″-oxo-1″,2″-dihydrodispiro[cyclobutane-1,2-pyrrolidine-3′,3″-indole]-5′-carboxamide]
50 to 100	O=C(N[C@H]1CC[C@H](c2nnco2)CC1)[C@@H]1NC2(CC(CF)(CF)C2)[C@@]2(C(=O)Nc3cc(Cl)ccc32)[C@H]1c1cccc(Cl)c1F [Example 123, (3′R, 4″S,5′R)-6′-chloro-4′-(3-chloro-2-fluorophenyl)-3,3-bis(fluoromethyl)-N-[trans-4-(1,3,4-oxadiazol-2-yl)cyclohexyl]-2″-oxo-1″,2″-dihydrodispiro[cyclobutane-1,2′-pyrrolidine-3′,3″-indole]-5′-carboxamide]
1 to 50	CN(C)C(=O)[C@@H]1CC[C@@H](NC(=O)[C@@H]2NC3(CC(CF)(CF)C3)[C@@]3(C(=O)Nc4cc(Cl)ccc43)[C@H]2c2cccc(Cl)c2F)CO1 [Example 124, (3′R, 4′S,5′R)-6″-chloro-4′-(3-chloro-2-fluorophenyl)-N-[(3R,6S)-6-(dimethylcarbamoyl)tetrahydro-2H-pyran-3-yl]-3,3-bis(fluoromethyl)-2″-oxo-1″,2″-dihydrodispiro[cyclobutane-1,2′-pyrrolidine-3′,3″-indole]-5′-carboxamide]
1 to 50	CCN(C)C(=O)[C@@H]1CC[C@@H](NC(=O)[C@@H]2NC3(CCC(C)(C)CC3)[C@@]3(C(=O)Nc4cc(Cl)ccc43)[C@H]2c2ccnc(Cl)c2F)CO1 [Example 125, (3′R, 4′S,5′R)-6″-chloro-4′-(2-chloro-3-fluoropyridin-4-yl)-N-{(3R,6S)-6-[ethyl(methyl)carbamoyl]tetrahydro-2H-pyran-3-yl}-4,4-dimethyl-2″-oxo-1″,2″-dihydrodispiro[cyclohexane-1,2′-pyrrolidine-3′,3″-indole]-5′-carboxamide]
1 to 50	CC1(C)CCC2(CC1)N[C@@H](C(=O)N[C@@H]1CC[C@@H](C(=O)NCCF)OC1)[C@H](c1ccnc(Cl)c1F)[C@]21C(=O)Nc2cc(Cl)ccc21 [Example 126, (3′R, 4′S,5′R)-6″-chloro-4′-(2-chloro-3-fluoropyridin-4-yl)-N-{(3R,6S)-6-[{2-fluoroethyl}carbamoyl]tetrahydro-2H-pyran-3-yl}-4,4-dimethyl-2″-oxo-1″,2″-dihydrodispiro[cyclohexane-1,2′-pyrrolidine-3′,3″-indole]-5′-carboxamide]
1 to 50	COCCN(C)C(=O)[C@@H]1CC[C@@H](NC(=O)[C@@H]2NC3(CCC(C)(C)CC3)[C@@]3(C(=O)Nc4cc(Cl)ccc43)[C@H]2c2ccnc(Cl)c2F)CO1 [Example 127, (3′R, 4′S,5′R)-6″-chloro-4′-(2-chloro-3-fluoropyridin-4-yl)-N-{(3R,6S)-6-[(2-methoxyethyl)(methyl)carbamoyl]tetrahydro-2H-pyran-3-yl}-4,4-dimethyl-2″-oxo-1″,2″=dihydrodispiro[cyclohexane-1,2′-pyrrolidine-3′,3″-indole]-5′-carboxamide]
1 to 50	COCCNC(=O)[C@@H]1CC[C@@H](NC(=O)[C@@H]2NC3(CCC(C)(C)CC3)[C@@]3(C(=O)Nc4cc(Cl)ccc43)[C@H]2c2ccnc(Cl)c2F)CO1 [Example 128, (3′R, 4′S,5′R)-6″-chloro-4′-(2-chloro-3-fluoropyridin-4-yl)-N-{(3R,6S)-6-[(2-methoxyethyl)carbamoyl]tetrahydro-2H-pyran-3-yl}-4,4-dimethyl-2″-oxo-1″,2″-dihydrodispiro[cyclohexane-1,2′-pyrrolidine-3′,3″-indole]-5′-carboxamide]
1 to 50	CO[C@@H]1C[C@@H](NC(=O)[C@@H]2NC3(CC(CF)(CF)C3)[C@@]3(C(=O)Nc4cc(Cl)ccc43)[C@H]2c2cccc(Cl)c2F)CO[C@@H]1CO [Example 129, (3′R,4′S,5′R)-6″-chloro-4′-(3-chloro-2-fluorophenyl)-3,3-bis(fluoromethyl)-N-[(3R,5R,6R)-6-(hydroxymethyl)-5-methoxytetrahydro-2H-pyran-3-yl]-2″-oxo-1″,2″-dihydrodispiro[cyclobutane-1,2′-pyrrolidine-3′,3″-indole]-5′-carboxamide]
1 to 50	CC1(C)CCC2(CC1)N[C@@H](C(=O)N[C@H]1CC[C@H](c3nnc(CO)o3)CC1)[C@H](c1ccnc(Cl)c1F)[C@]21C(=O)Nc2cc(Cl)ccc21 [Example 130, (3′R, 4′S,5′R)-6″-chloro-4′-(2-chloro-3-fluoropyridin-4-yl)-N-{trans-4-[5-(hydroxymethyl)-1,3,4-oxadiazol-2-yl]cyclohexyl}-4,4-dimethyl-2″-oxo-1″,2″-dihydrodispiro[cyclohexane-1,2′-pyrrolidine-3′,3″-indole]-5′-carboxamide]
50 to 100	O=C(N[C@H]1CC[C@H](c2nnc(CO)o2)CC1)[C@@H]1NC2(CC(CF)(CF)C2)[C@@]2(C(=O)Nc3cc(Cl)ccc32)[C@H]1c1cccc(Cl)c1F [Example 131, (3′R, 4′S,5′R)-6″-chloro-4′-(3-chloro-2-fluorophenyl)-3,3-bis(fluoromethyl)-N-[trans-4-[5-(hydroxymethyl)-1,3,4-oxadiazol-2-yl]cyclohexyl]-2″-oxo-1″,2″-dihydrodispiro[cyclobutane-1,2′-pyrrolidine-3′,3″-indole]-5′-carboxamide]
50 to 100	C[C@@H](O)c1nnc([C@H]2CC[C@H](NC(=O)[C@@H]3NC4(CCC(C)(C)CC4)[C@@]4(C(=O)Nc5cc(Cl)ccc54)[C@H]3c3ccnc(Cl)c3F)CC2)o1 [Example 132, (3′R, 4′S, S′R)-6″-chloro-4′-(2-chloro-3-fluoropyridin-4-yl)-N-(trans-4-{5-[(1R)-1-hydroxyethyl]-1,3,4-oxadiazol-2-yl}cyclohexyl)-4,4-dimethyl-2″-oxo-1″,2″-dihydrodispiro[cyclohexane-1,2′-pyrrolidine-3′,3″-indole]-5′-carboxamide]
50 to 100	COC[C@@H]1CC[C@@H](NC(=O)[C@@H]2NC3(CCC(C)(C)CC3)[C@@]3(C(=O)Nc4cc(Cl)ccc43)[C@H]2c2ccnc(Cl)c2F)CO1 [Example 133, (3′R, 4′S,5′R)-6″-chloro-4′-(2-chloro-3-fluoropyridin-4-yl)-N-[(3R,6S)-6-(methoxymethyl)tetrahydro-2H-pyran-3-yl]-4,4-dimethyl-2″-oxo-1″,2″-dihydrodispiro[cyclohexane-1,2′-pyrrolidine-3′,3″-indole]-5′-carboxamide]
1 to 50	NC(=O)[C@H]1C[C@H](NC(=O)[C@@H]2NC3(CC(CF)(CF)C3)[C@@]3(C(=O)Nc4cc(Cl)ccc43)[C@H]2c2cccc(Cl)c2F)C1 [Example 134, (3′R, 4′S,5′R)—N-(trans-3-carbamoylcyclobutyl)-6″-chloro-4′-(3-chloro-2-fluorophenyl)-3,3-bis(fluoromethyl)-2″-oxo-1″,2″-dihydrodispiro[cyclobutane-1,2′-pyrrolidine-3′,3″-indole]-5′-carboxamide]
100 to 500	CC(C)(O)[C@@H]1CC[C@@H](NC(=O)[C@@H]2NC3(CC(CF)(CF)C3)[C@@]3(C(=O)Nc4cc(Cl)ccc43)[C@H]2c2cccc(Cl)c2F)CO1 [Example 135, (3′R, 4′S,5′R)-6″-chloro-4′-(3-chloro-2-fluorophenyl)-3,3-bis(fluoromethyl)-N-[(3R,6S)-6-(1-hydroxy-1-methylethyl)tetrahydro-2H-pyran-3-yl]-2″-oxo-1″,2″-dihydrodispiro[cyclobutane-1,2′-pyrrolidine-3′,3″-indole]-5′-carboxamide]
